In PubChem BioAssay (NCI) one finds GI50 and TGI data, which are given here for seven molecules.

Values joined by “and” are separate entries in the source; they are usually repeats but may differ in a detail not shown here. Identical values can stand only once.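 Exposure lasted 48 hours, with cells grown in 96-well plates and compounds tested at five concentrations. Abbreviation: GI50, concentration required for 50% inhibition of growth. Definition used: TGI = concentration required for complete inhibition of growth.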 A value given as a limit tells only on which side of the number the result lay.

What all share (assay): NCI anticancer screen, dose series, 48 h
Test [1] concerns A498 renal.
For test [2], the system named is HOP-92 NSCLC.
Test [3] relates to DU-145 prostate.
For test [4], the system named is NCI-H23 lung.
Test [5] deals with HL-60(TB) leukemia.
Test [6] relates to HCC-2998 colon.
The subject of test [7] is SK-MEL-5 melanoma.
The subject of test [8] is SR leukemia.
The subject of test [9] is UACC-257 melanoma.
The test system of test [10] is HOP-62 NSCLC.

Turning to `CN(C)CCN=c1nc2c(c(N)n1-c1ccccc1)c(=S)n(-c1ccccc1)c(=S)n2-c1ccccc1`, the GI50 in test [1] was 1.24 µM; in [2] it was 1.62 µM; in test [3], 4.91 µM; in test [4], 13.2 µM; in test [5], 1.52 µM; in [6], 2.05 µM. Also, the GI50 is 1.49 µM in test [7], 1.36 µM in test [8], 1.91 µM in test [9] and 2.73 µM in test [10]. Besides, the TGI in test [1] was determined as 4.08 µM; in test [2] it was 12.6 µM; in test [3], 17.7 µM; in test [4], 31.9 µM; in test [5] it was 3.3 µM; in [6], 5.33 µM. In addition, the TGI in test [7] was found to be 2.93 µM; in [8], 3.34 µM; in test [9], 3.75 µM; in test [10], 10.8 µM.
`COc1ccc2c(CN3CCCC[C@H]3O)cc3cc4c(cc3c2c1)OCO4`: the GI50 in test [1] is 0.542 µM; in [2] it was 0.241 µM; in test [3] it was 0.475 µM; in test [4], 0.445 µM; in [5], 0.351 µM; in test [6], 0.337 µM. In addition, the GI50 in test [7] was 0.345 µM; in [8], 0.195 µM; in test [9], 0.237 µM; in test [10] it was 0.541 µM. In addition, the TGI in test [1] was 1.47 µM; in test [2] it was 2.4 µM; in test [3], 7.24 µM; in [4], 1.82 µM; in [5], 1.35 µM; in test [6], 1.48 µM. The TGI was 1.39 µM in test [7], 0.854 µM in test [8], 0.737 µM in [9] and 3.52 µM in [10].
As for `CC(C)(O)c1cc(Nc2cc(Oc3cn(C4CC4)nc3C3CCOCC3)ccn2)ccn1`, the GI50 was 63.1 µM in test [1]; 21.3 µM in [2]; greater than 100 µM in [3]; 34.8 µM in test [4]; 27.6 µM in test [5]; greater than 100 µM in test [6]. The GI50 in test [7] was 38.7 µM; in test [8] it was greater than 100 µM; in [9] it was 85.1 µM; in test [10], greater than 100 µM. For the same molecule, the TGI in test [1], in [2], in [3], in test [4], in test [5] and in test [6] was greater than 100 µM each time. The TGI in test [7], in test [8], in [9] and in test [10] was greater than 100 µM throughout.
As to `CN(Cc1cnc2nc(N)nc(N)c2n1)c1c(Cl)cc(C(=O)NC(CCC(=O)O)C(=O)O)cc1Cl` (centres undefined), the GI50 in [1] is 0.0994 µM; in [2], 1.49 µM; in [3], less than 0.01 µM; in test [4], 0.0277 µM; in test [5], less than 0.01 µM; in test [6], less than 0.0148 µM. For the same molecule, the GI50 is 0.0483 µM in test [7], less than 0.01 µM in [8] and 0.0287 µM in test [10]. In addition, the TGI in test [1], in test [2], in test [3], in test [4], in test [5] and in test [6] was greater than 100 µM each time. Moreover, the TGI in test [7], in test [8], in test [9] and in test [10] was greater than 100 µM throughout.
For the molecule `CCS(=O)(=O)c1cccc(-c2cc(C(=O)NC3CCN(C)CC3)c(C)c3[nH]c4ncc(C)cc4c23)c1`, the GI50 in [1] was 0.453 µM and 0.124 µM; in test [2], 0.12 µM and 0.0887 µM; in test [3], 1.21 µM and 0.745 µM; in test [4] it was 0.483 µM and 0.322 µM; in test [5] it was 0.179 µM and 0.442 µM; in [6] it was 0.177 µM and 0.703 µM. The GI50 in test [7] is 2.29 µM and 0.798 µM; in [8], 0.0682 µM and < 0.0246 µM; in test [9] it was 1.26 µM and 0.562 µM; in test [10], 0.645 µM and 0.266 µM. Besides, the TGI in test [1] was 1.65 µM and 0.79 µM; in test [2], 0.595 µM and 0.33 µM; in test [3], 3.48 µM and 2.35 µM; in [4], 5.23 µM and 3.75 µM; in test [5], 4.22 µM and 3.97 µM; in [6] it was 2.14 µM and 4.18 µM. Besides, the TGI was > 9.22 µM and 2.65 µM in test [7]; 2.14 µM and 1.58 µM in test [8]; 6.79 µM and 4.67 µM in [9]; > 6.56 µM and 2.01 µM in [10].
For the molecule `CC(C)(C)OC(=O)NCCCCCCCCCCCCn1c2c(c3ccccc3c1=O)C(=O)c1ccccc1-2`, the GI50 in test [1] is 24.7 µM; in test [2], 16.8 µM; in test [3] it was 91.6 µM; in test [4], 36.9 µM; in [5] it was greater than 100 µM; in [6], greater than 100 µM. Further, the GI50 was greater than 100 µM in test [7], 35 µM in [8], greater than 100 µM in [9] and 32.7 µM in test [10]. For the same molecule, the TGI in test [1] is 68.7 µM; in [2] it was 39.9 µM; in test [3] it was greater than 100 µM; in test [4], greater than 100 µM; in test [5] it was greater than 100 µM; in test [6] it was greater than 100 µM. Also, the TGI in test [7], in [8], in test [9] and in [10] was greater than 100 µM throughout.
Regarding `COc1ccc2c(c1)[n+](=O)c(/C=C/C(=O)c1cc(OC)c(OC)c(OC)c1)c(C)n2[O-]`, the GI50 in test [1] is 20.5 µM; in test [2], 2.56 µM; in test [3] it was 2.1 µM; in test [4] it was 13.7 µM; in [5], 4.98 µM; in [6], 23.4 µM. The GI50 was 12.6 µM in [7], 0.644 µM in test [8], 9.61 µM in [9] and 19.4 µM in test [10]. The TGI in [1] was 54.2 µM; in [2] it was 19.1 µM; in test [3], 13.4 µM; in test [4], 34 µM; in [5] it was 22.4 µM; in [6], 68.7 µM. The TGI in test [7] is 34.3 µM; in test [8] it was 2.41 µM; in test [9] it was greater than 100 µM; in test [10], 47 µM.
